Values of other authors, collected in patent publication US6823530B2, “Antimicrobial treatment for swimwear” (Kimberly-Clark Worldwide, Inc., priority 2000, dated 2004).

What was measured:
[1] = test system: gram negative and positive bacteria

In the case of CC1(C)C(=O)N(CO)C(=O)N1CO [DMDM Hydantoin, DMDM (dimethyl dimethyl) Hydantoin], the “effectiveness against gram negative and positive bacteria” value [1] is given as “highly effective”, the thermal stability (held above room temperature (50° Celsius) for a long period of time) is given as “does not break down” and the pH stability (wide pH range) is given as “stable over a wide pH range”.
